Measured values as given in patent US7105310B1, “Detection of biomolecules by sensitizer-linked substrates” (California Institute of Technology, priority 2000, dated 2006).
Several values for one entry are separate records, joined by “and”; a condition that tells them apart may be missing. Equal values may be shown once.

Legend:
cytochrome P450cam [1] = biological target: T1, cytochrome P450cam (Pseudomonas putida, UniProt P00183); settings: cited from earlier work
cytochrome P450cam [2] = biological target: T2, cytochrome P450cam (Pseudomonas putida, UniProt P00183, C335A); experiment: biochemical
Protocol: A Hewlett Packard 8452A spectrophotometer was used to collect UV-vis data. Buffer conditions were 50 mM potassium phosphate, 100 mM potassium chloride, pH 7.4 for all protein solutions (˜5 μM P450). […] Thus, affinities were determined by the ability of these complexes to inhibit the low- to high-spin transition produced by camphor. […] The concentration of ethanol never exceeded 1% of the total volume. […] Absorbance changes were recorded at 392 and 416 nm. […] By definition, KD=Kcam/KI, where Kcam is the dissociaton constant of camphor (in the absence of Ru-substrate), and KI is the equilibrium constant between camphor- and ruthenium-bound P450, spectroscopically determined by measuring the dissociation constant of camphor at multiple Ru concentrations. Luminescence experiments measure KD directly.

cytochrome P450cam [3] = biological target: T1, cytochrome P450cam; settings: for rate of hydroxylation (NADH consumption): NADH/PdR/Pd/P450, 1 μM P450, 20 °C
Protocol: Two cycles of acetonitrile (5 mL) addition, decanting, and rotary evaporation were performed to separate the buffer salts from the ruthenated species. The ruthenium concentration was quantified by UV-vis (ε456=14,500 M^−1 cm^−1).
Each solution was injected three different times, with intermediary blank runs of pure acetonitrile. Relative peak intensities were determined using analysis software, which deconvolved the spectra to assign one singly charged peak to each compound. […] This information was crucial in quantifying hydroxylated product yields relative to starting material in the analysis of subsequent turnover experiments.
The oxygen electrode was calibrated at 20° C. (linear response with [O2], 0–100% O2), and connected to a LeCroy oscilloscope interfaced to a PC using freely available LeCroy software (LeCroy, Chestnut Ridge, N.Y.). The O2 electrode (3 mm diameter with Teflon casing) was pushed through a septum, which formed an airtight seal with the mouth of a standard 1 cm pathlength cuvette. […] All UV-vis experiments were conducted with stirred samples at 20° C. […] Experiments were initiated upon addition of 200 μM NADH, and absorbance at 340 nm was measured simultaneously with O2 consumption.
The consumption of NADH was monitored at 340 nm by UV-vis spectroscopy and O2 consumption monitored with the microelectrode. Once all of the NADH was consumed, a known amount of 3-endo-bromo-camphor was added, and the mixture was extract three times with an equal volume of methylene chloride. The organic extract was concentrated by evaporation and analyzed by GC.

nNOS = settings: cited from earlier work
eNOS = settings: cited from earlier work
iNOS = settings: cited from earlier work
NOS = settings: cited from earlier work
cytochrome P450cam [4] = biological target: T2, cytochrome P450cam; settings: untethered control complexes
P450:Ru complex = biological target: T3, P450:Ru complex (Pseudomonas putida, UniProt P00183); experiment: Camphor titration into stoichiometric P450:Ru—C10 (UV-vis); assay type: binding
T3 construct: made in house
T3 sequence (P00183 2-415 limits assumed): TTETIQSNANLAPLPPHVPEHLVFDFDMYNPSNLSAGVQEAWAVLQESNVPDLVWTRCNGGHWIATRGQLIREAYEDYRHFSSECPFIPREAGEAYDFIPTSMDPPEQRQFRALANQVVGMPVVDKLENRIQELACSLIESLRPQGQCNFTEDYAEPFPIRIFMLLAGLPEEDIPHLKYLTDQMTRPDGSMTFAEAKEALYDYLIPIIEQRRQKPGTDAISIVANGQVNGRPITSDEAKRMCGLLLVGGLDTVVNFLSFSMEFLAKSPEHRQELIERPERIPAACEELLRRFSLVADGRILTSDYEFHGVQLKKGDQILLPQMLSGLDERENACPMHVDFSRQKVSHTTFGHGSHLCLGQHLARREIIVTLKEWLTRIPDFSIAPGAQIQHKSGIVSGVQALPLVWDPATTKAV

P450 [5] = biological target: T4, P450 (Pseudomonas putida, UniProt P00183); settings: cited from earlier work
T4 construct: made in house; host or cells: E. coli
T4 sequence (P00183 1-415): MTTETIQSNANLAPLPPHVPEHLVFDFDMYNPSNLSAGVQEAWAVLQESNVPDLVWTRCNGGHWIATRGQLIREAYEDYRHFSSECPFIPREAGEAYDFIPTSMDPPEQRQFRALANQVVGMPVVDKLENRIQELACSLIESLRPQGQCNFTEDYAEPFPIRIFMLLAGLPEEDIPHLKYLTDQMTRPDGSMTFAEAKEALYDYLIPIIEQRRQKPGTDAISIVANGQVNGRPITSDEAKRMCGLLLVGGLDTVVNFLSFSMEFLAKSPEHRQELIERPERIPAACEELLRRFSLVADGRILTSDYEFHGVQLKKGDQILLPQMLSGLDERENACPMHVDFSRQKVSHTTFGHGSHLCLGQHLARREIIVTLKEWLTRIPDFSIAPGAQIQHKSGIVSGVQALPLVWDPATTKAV

Asp251Asn = Asp251Asn (Pseudomonas putida, UniProt P00183, D252N); settings: decreases above 15° C.; cited from earlier work
P450cam = biological target: T5, P450cam (Pseudomonas putida, UniProt P00183); experiment: Binding of [Ru(phen)2dppa]-adamantyl probes to P450; settings: Example VI
T5 construct: made in house; host or cells: E. coli
T5 sequence (P00183 1-415): T4 sequence (P00183 1-415)
Protocol: (§1) Electrospray mass spec. data was collected on a Finnigan LCQ quadrupole ion trap mass spectrometer.
(§2) P450 was stored in small aliquots and thawed immediately before use. Samples were prepared in 50 mM Kphos buffer containing 100 mM KCl. P450 concentration was quantified using the heme soret absorption at 416.5 nm (115,000 M^−1 cm^−1). Samples were prepared in a custom quartz cuvette fitted with a Kontes Teflon stopcock. Oxygen was removed from the sample by completing at least 30 cycles of partial vacuum followed by an influx of argon.

P450 [6] = biological target: T4, P450; experiment: Steady-state luminescence of Ru-dppa probes in acetonitrile, buffer and buffer with P450; settings: for integrated luminescence intensity with P450 as % of value in acetonitrile: buffer in the presence of P450
Protocol: as §1, §2
The luminescence of compounds 1–3 was examined in acetonitrile, potassium phosphate buffer, and buffer in the presence of P450 (as described above). […] The complexes 2 and 3 show modest recoveries of luminescence, with integrated intensities that are 2.6 and 5.2% of their values in acetonitrile (FIG. 49). The luminescence from 3 is approximately 20 fold greater in the presence of P450 than in buffer alone.

[7] = test system: six heme proteins (yeast cytochrome c, horse skeletal muscle myoglobin, bovine lipase cytochrome b5, bovine liver catalase, recombinant yeast cytochrome c …); experiment: Emission decay of Ru-substrate in presence of other heme proteins; settings: […] Ru—C9-Ad, 50 mM sodium phosphate pH 7; monophasic = no binding

## NC(=O)CC12CC3CC(CC(C3)C1)C2 [1-adamantylacetamide]
Cytochrome P450cam [1]; literature
  rate of hydroxylation, literature value: ~110 μmol NADH/min/μmol P450

## NC(=O)CC1C2CC3CC(C2)CC1C3 (stereo not shown) [2-adamantylacetamide]
Cytochrome P450cam [2]
  spin conversion at the heme: full low to high spin conversion
Cytochrome P450cam [2]; ferric-aquo P450
  conversion of heme to high-spin species on binding: 95%
Cytochrome P450cam [3]
  yield of hydroxylated product based on NADH (product formation/NADH consumption): 47±3%
  rate of hydroxylation (NADH consumption): 90±20 μmol NADH/min/μmol P450

## CC(=N)NCc1cccc(CN)c1 [1400W]
nNOS
  type of inhibition: weak, reversible inhibitor
eNOS
  type of inhibition: weak, reversible inhibitor
iNOS
  type of inhibition: irreversible inhibitor

## N=C(NCCC[C@H](N)C(=O)O)N[N+](=O)[O-] [NMA, N^ω-nitro-arginine]
NOS
  inhibition of NOS: good, but non-specific inhibitor

## [Cl-].[Cl-].[Ru+2].c1ccc(-c2ccccn2)nc1.c1ccc(-c2ccccn2)nc1.c1ccc(-c2ccccn2)nc1 [[Ru(bpy)3]^2+, Tris(2,2′-bipyridine)ruthenium(II) chloride]
Cytochrome P450cam [4]
  quenching upon addition of P450: not quenched

## CC12CCC(CC1=O)C2(C)C (stereo not shown) [camphor]
Cytochrome P450cam [2]; dissociation constant of camphor (KS, Kcam), P450 alone, no Ru-substrate, 50 mM potassium phosphate, 100 mM KCl, pH 7.4, 20 °C
  Kd: 3 µM and 3.1 µM
Cytochrome P450cam [3]
  rate of hydroxylation (NADH consumption): ~600 μmol NADH/min/μmol P450
P450:Ru complex
  Kd: 3.6 ± 0.2 µM
P450 [5]; comparison value, read-out: KD of camphor (natural substrate)
  Kd: ~1 µM and 1.6 µM
P450 [5]; decreases below 15° C.
  association constant for camphor (In Keq), WT P450: ~14.2
Asp251Asn
  association constant for camphor (In Keq), Asp251Asn: ~14.2
Cytochrome P450cam [1]
  coupling of hydroxylation reaction: ~100%

## D-Phe-D-ArgNO2—OMe
nNOS
  dissociation constant: micromolar
eNOS
  dissociation constant: micromolar
iNOS
  Kd: 3600 µM

## Ru(phen)2dppa-C6-Ad [compound 1]
P450cam
  Kd: 0.25 µM
P450 [6]
  luminescence increase over background: did not show a significant increase in luminescence

## Ru(phen)2dppa-adm [compound 3]
P450cam
  Kd: 0.18 µM
P450 [6]; based on reported quantum yield of [Ru(phen)2dppz]2+ in aerated acetonitrile
  quantum yield bound to P450: 0.00038
P450 [6]
  integrated luminescence intensity with P450 as % of value in acetonitrile: 5.2%

## Ru(phen)2dppa-gly-adm [compound 2]
P450cam
  Kd: 2.4 µM
P450 [6]
  integrated luminescence intensity with P450 as % of value in acetonitrile: 2.6%

## [Ru(bpy)2(bpy-C9-Ad)]Cl2 [Ru—C9-Ad]
Cytochrome P450cam [3]
  effective product yield based on background oxidase activity: 40%
  yield of hydroxylated product based on NADH (product formation/NADH consumption): 10%
  rate of hydroxylation (NADH consumption): 10±2 μmol NADH/min/μmol P450 and 8 μmol NADH/min/μmol P450
[7]
  emission decay profile in presence of six heme proteins: monophasic
